# Test results taken from patent US20040214848A1, “Inhibitors of ABC drug transporters in microbial cells” (priority 2001, published 2004).
# Like-named read-outs stand apart in the source and are kept apart here.
# Legend:
# [1] = target: T1, human PGP (Homo sapiens, UniProt P08183); assay: Inhibition of PGP-mediated [3H]-digoxin transport in human PGP-expressing LLC-PK1 (15B-J) cell monolayers; conditions: for Concentrations at which inhibitory behavior was exhibited: pH 7.2
# [2] = target: T1, human PGP
# [3] = target: human PGP membranes (PGP-ATPase) (Homo sapiens, UniProt P08183)
# Method: The DMSO concentration (1.0%) was constant for all conditions within the experiment.
# The test substances were incubated in the PGP membranes and supplemented with MgATP, with and without sodium orthovanadate present. Orthovanadate inhibits PGP by trapping MgADP in the nucleotide binding site. Thus, the ATPase activity measured in the presence of orthovanadate represents non-PGP ATPase activity and was subtracted from the activity generated without orthovanadate to yield vanadate-sensitive ATPase activity.
# (§1) ATPase assays were conducted in 96-well microtiter plates. A 0.06 mL reaction mixture containing 40 μg PGP membranes, test substance, and 4 mM MgATP, in buffer containing 50 mM Tris-MES, 2 mM EGTA, 50 mM KCl, 2 mM dithiothreitol, and 5 mM sodium azide, plus organic solvent was incubated at 37° C. for 20 minutes. […] Identical reaction mixtures containing 100 μM sodium orthovanadate were assayed in parallel. The reactions were stopped by the addition of 30 μl of 10% SDS+Antifoam A. The incubations were followed with addition of 200 μl of 35 mM Ammonium Molybdate in 15 mM Zinc Acetate:10% Ascorbic Acid (1:4) and incubated for an additional 20 minutes at 37° C. Additionally, 0.06 mL aliquots of potassium phosphate standards prepared in the buffer described above, were incubated in the plates containing the test and control substances, with SDS and detection reagent added. The liberation of inorganic phosphate was detected by its absorbance at 800 nm and quantitated by comparing the absorbance to a phosphate standard curve. The concentration dependence of the PGP was analyzed for evidence of saturation of PGP-ATPase activity, and apparent kinetic parameters were calculated by non-linear regression.
# as §1, with “plates.” for “plates. A 0.06 mL reaction mixture containing 40 μg PGP membranes, test substance, and 4 mM MgATP, in buffer containing 50 mM Tris-MES, 2 mM EGTA, 50 mM KCl, 2 mM dithiothreitol, and 5 mM sodium azide, plus organic solvent was incubated at 37° C. for 20 minutes.”, “PGP-associated ATPase” for “PGP-ATPase”
# as §1, with “The effect of tobramycin on PGP-associated ATPase activity was also assayed. The tobramycin was incubated in human PGP membranes (BD Biosciences, Franklin Lakes, N.J., Gentest Cat. K228) and supplemented with MGATP, with and without sodium orthovanadate present. ATPase” for “ATPase”, “tobramycin,” for “test substance,”, “solvent (1% DMSO)” for “solvent”, “curve.” for “curve. The concentration dependence of the PGP was analyzed for evidence of saturation of PGP-ATPase activity, and apparent kinetic parameters were calculated by non-linear regression.”
# [4] = tested on: CLA (control) Monolayer, LLC-PK1 cells; conditions: pig, 120 min, 10 µM, pH 7.2
# [5] = tested on: Plasmodium falciparum strains; conditions: more rapidly; cited from earlier work
# T1 sequence (P08183 whole entry): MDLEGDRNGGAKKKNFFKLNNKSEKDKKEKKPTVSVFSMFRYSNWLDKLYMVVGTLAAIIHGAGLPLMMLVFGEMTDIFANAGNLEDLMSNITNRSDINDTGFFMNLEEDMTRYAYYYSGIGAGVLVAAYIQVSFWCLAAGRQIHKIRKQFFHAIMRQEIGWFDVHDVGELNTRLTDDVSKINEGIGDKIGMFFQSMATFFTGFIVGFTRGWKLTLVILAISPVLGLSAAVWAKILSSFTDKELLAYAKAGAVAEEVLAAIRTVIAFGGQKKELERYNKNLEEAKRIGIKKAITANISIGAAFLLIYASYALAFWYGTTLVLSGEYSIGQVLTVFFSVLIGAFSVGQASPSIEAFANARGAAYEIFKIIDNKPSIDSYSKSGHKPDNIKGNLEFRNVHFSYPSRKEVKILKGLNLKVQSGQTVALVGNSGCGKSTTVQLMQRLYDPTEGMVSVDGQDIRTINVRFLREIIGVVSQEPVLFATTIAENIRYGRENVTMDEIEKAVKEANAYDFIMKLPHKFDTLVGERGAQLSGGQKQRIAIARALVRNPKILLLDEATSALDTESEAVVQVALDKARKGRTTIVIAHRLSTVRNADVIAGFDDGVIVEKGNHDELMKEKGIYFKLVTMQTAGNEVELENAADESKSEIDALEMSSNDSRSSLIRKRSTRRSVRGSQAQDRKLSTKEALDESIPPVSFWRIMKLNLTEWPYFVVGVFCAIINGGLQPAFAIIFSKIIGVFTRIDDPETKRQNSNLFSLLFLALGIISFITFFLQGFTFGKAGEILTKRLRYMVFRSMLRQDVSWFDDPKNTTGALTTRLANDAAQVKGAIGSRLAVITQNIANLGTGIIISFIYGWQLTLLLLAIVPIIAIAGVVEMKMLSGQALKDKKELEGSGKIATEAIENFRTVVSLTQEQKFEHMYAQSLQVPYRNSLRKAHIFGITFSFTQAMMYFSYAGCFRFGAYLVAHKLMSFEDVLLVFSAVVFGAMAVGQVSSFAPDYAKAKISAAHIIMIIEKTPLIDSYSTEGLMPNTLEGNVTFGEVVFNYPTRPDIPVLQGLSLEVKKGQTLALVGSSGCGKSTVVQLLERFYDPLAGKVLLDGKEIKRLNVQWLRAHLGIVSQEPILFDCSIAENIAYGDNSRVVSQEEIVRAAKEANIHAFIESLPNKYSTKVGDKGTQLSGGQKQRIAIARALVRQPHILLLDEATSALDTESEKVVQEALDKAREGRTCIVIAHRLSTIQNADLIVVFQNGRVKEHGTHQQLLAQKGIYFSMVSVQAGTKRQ
# Chain of human PGP membranes (PGP-ATPase) (P08183 whole entry): as above
smiles,measurement,setting,value
"Oc1ccc2c3c1O[C@H]1[C@H](O)CC[C@@]4(O)[C@@H](C2)N(CC2CC2)CC[C@]314 [6-β-Naltrexol, 6-β-naltrexol]","Inhibition of digoxin efflux, mean",[1]; concentration range of 0.0001 to 30 μM,8.5 +/−7.1%
same,Inhibition of PGP-mediated digoxin transport (result in words),"[1]; ketoconazole at 25 μM, test substance over the concentration range tested",inhibitor of PGP-mediated digoxin transport
same,Concentration dependence of inhibition of digoxin transport (result in words),[2],did not appear to be concentration-dependent
"CC[C@H]1OC(=O)[C@H](C)[C@@H](O[C@H]2C[C@@](C)(OC)[C@@H](O)[C@H](C)O2)[C@H](C)[C@@H](O[C@@H]2O[C@H](C)C[C@H](N(C)C)[C@H]2O)[C@](C)(O)C[C@@H](C)C(=O)[C@H](C)[C@@H](O)[C@]1(C)O [Erythromycin, erythromycin]",Effect on PGP-associated ATPase activity (result in words),[3],stimulate PGP-associated ATPase activity
same,ATPase Activity,"[3]; human, 20 min, 0.1 μM",1.1 nmol/mg/min
same,ATPase Activity,"[3]; human, 20 min, 0.2 µM",2.0 nmol/mg/min
same,ATPase Activity,"[3]; human, 20 min, 0.4 µM",0.8 nmol/mg/min
same,ATPase Activity,"[3]; human, 20 min, 0.8 µM",0.1 nmol/mg/min
same,ATPase Activity,"[3]; human, 20 min, 3.13 µM",0.5 nmol/mg/min
same,ATPase Activity,"[3]; human, 20 min, 6.25 µM",0.6 nmol/mg/min
same,ATPase Activity,"[3]; human, 20 min, 12.5 µM",2.8 nmol/mg/min
same,ATPase Activity,"[3]; human, 20 min, 25 µM",8.2 nmol/mg/min
same,ATPase Activity,"[3]; human, 20 min, 50 µM",14.0 nmol/mg/min
same,ATPase Activity,"[3]; human, 20 min, 100 μM",15.6 nmol/mg/min
same,pmoles in Receiver,[4],6.3 pmol
"C=C1CC[C@@]2(O)[C@H]3Cc4ccc(O)c5c4[C@@]2(CCN3CC2CC2)[C@H]1O5 [Nalmefene, nalmefene]",Effect on PGP-associated ATPase activity (result in words),[3]; semi-quantitative assay,not to limit the ATPase activity
same,Concentration dependence of inhibition of digoxin transport (result in words),[1],increasingly inhibited in response to increasing concentration
same,"Efflux ratio B→A/A→B, Hi Affinity/Low Cap","[1]; human, LLC-PK1, pH 7.2",4.2 (3.0)
same,"Efflux ratio B→A/A→B, Low Affinity/Hi Cap","[1]; human, LLC-PK1, pH 7.2",2.6 (1.9)
same,Concentrations at which inhibitory behavior was exhibited,[1]; human,100 to 100000 nM
"C=CCN1CC[C@]23c4c5ccc(O)c4O[C@H]2C(=O)CC[C@@]3(O)[C@H]1C5 [Naloxone, naloxone]",Effect on PGP-associated ATPase activity (result in words),[3]; semi-quantitative assay,not to limit the ATPase activity
same,Concentration dependence of inhibition of digoxin transport (result in words),[1],not concentration-dependent
same,Concentrations at which inhibitory behavior was exhibited,[1]; human,100 to 100000 nM
"O=C1CC[C@@]2(O)[C@H]3Cc4ccc(O)c5c4[C@@]2(CCN3CC2CC2)[C@H]1O5 [Naltrexone, naltrexone]",ATPase Activity,[3]; 0.003 μM test substance,-0.3 nmol/mg/min
same,ATPase Activity,[3]; 0.01 μM test substance,0.0 nmol/mg/min
same,ATPase Activity,[3]; 0.03 μM test substance,-1.6 nmol/mg/min
same,ATPase Activity,[3]; 0.1 μM test substance,-0.7 nmol/mg/min
same,ATPase Activity,[3]; 0.3 μM test substance,-1.4 nmol/mg/min
same,ATPase Activity,[3]; 1.0 μM test substance,-0.8 nmol/mg/min
same,ATPase Activity,[3]; 3.0 μM test substance,2.1 nmol/mg/min
same,ATPase Activity,[3]; 10 μM test substance,2.0 nmol/mg/min
same,ATPase Activity,[3]; 30 μM test substance,-2.0 nmol/mg/min
same,ATPase Activity,[3]; 100 μM test substance,4.6 nmol/mg/min
"NC[C@H]1O[C@H](O[C@H]2[C@H](O)[C@@H](O[C@H]3O[C@H](CO)[C@@H](O)[C@H](N)[C@H]3O)[C@H](N)C[C@@H]2N)[C@H](N)C[C@@H]1O [Tobramycin, tobramycin]",Effect on PGP-associated ATPase activity (result in words),[3],stimulate PGP-associated ATPase activity
same,ATPase Activity,"[3]; human, 20 min, 0.1 μM",-1.6 nmol/mg/min
same,ATPase Activity,"[3]; human, 20 min, 0.2 µM",-2.6 nmol/mg/min
same,ATPase Activity,"[3]; human, 20 min, 0.4 µM",-2.6 nmol/mg/min
same,ATPase Activity,"[3]; human, 20 min, 0.8 µM",-3.3 nmol/mg/min
same,ATPase Activity,"[3]; human, 20 min, 3.13 µM",-2.6 nmol/mg/min
same,ATPase Activity,"[3]; human, 20 min, 6.25 µM",-1.4 nmol/mg/min
same,ATPase Activity,"[3]; human, 20 min, 12.5 µM",-1.0 nmol/mg/min
same,ATPase Activity,"[3]; human, 20 min, 25 µM",0.2 nmol/mg/min
same,ATPase Activity,"[3]; human, 20 min, 50 µM",0.3 nmol/mg/min
same,ATPase Activity,"[3]; human, 20 min, 100 μM",1.5 nmol/mg/min
CCN(CC)CCCC(C)Nc1ccnc2cc(Cl)ccc12 (stereo not drawn) [chloroquine],"Efflux of the drug, chloroquine-resistant versus chloroquine-sensitive strains",[5],40-50 times
